{
  "source": "patent EP0351784A2",
  "about": "“Therapeutic use of the isopropyl ester derivative of monosialoganglioside in nervous pathologies with an inflammatory component” (FIDIA S.p.A., priority 1988, dated 1990)",
  "key": {"male Sprague Dawley rats": {"test_system": "male Sprague Dawley rats", "test": "carrageenan-induced edema test in the paw (antiedematous activity)", "format": "in vivo, rat", "conditions": "for % inhibition: paw volume increase at 3rd hour", "description": "The study was conducted on male Sprague Dawley rats, weighing about 160 ± 10 gr. An evaluation was made of the activity of the isopropyl ester of GM₁ ganglioside (AGF₄₄) and GM₁ in inhibiting the formation of edema following injection of a sterile aqueous solution of 1% carrageenan into the plantar aponeurosis of the right hand paw (0.1 ml/rat). To study administration by oral, subcutaneous and intraparitoneal routes, AGF₄₄ and GM₁ (solubilized in 10 ml/kg of sterile saline physiological solution) were compared to indomethacin as a comparison compound. For study of the oral route, each compound was administered by oral route one hour before injection of carrageenan. For study of the subcutaneous and intraperitoneal routes, each compound was administered 30 minutes before the same. To study topical administration, AGF₄₄ and GM₁ (as 0.1% aqueous gels) were compared to 5% Artrosilene gel (ketoprefene lysine salt). Each compound was applied locally to the right paw, and administration was effected twice, one hour before and immediately after injection of carrageenan, massaging lightly for 30 seconds to ensure complete absorption. The control groups received saline physiological solution (10 ml/kg) and placebo gel (0.2-0.4 ml/rat twice) respectively. Plethysmometric evaluation of the volume of the right paw was effected immediately before sub-plantar injection of carrageenan an 3 hours after the same. The antiedematous effect of the treatment was calculated by evaluating the average increase in paw volume at the 3rd hour (compared to time 0) based on control values."}, "Sprague-Dawley rats": {"test_system": "Sprague-Dawley rats", "test": "acetic acid-induced peritonitis test (antiexudative activity)", "format": "in vivo, rat", "conditions": "for % inhibition: peritoneal exudate", "description": "The study was conducted on Sprague-Dawley rats, weighing between 200 and 300 gr. An evaluation was made of the capacity of the isopropyl ester of GM₁ ganglioside (hereafter known as AGF₄₄) and GM₁ itself, to inhibit the formation of peritoneal exudate following intraperitoneal injection (10 ml/kg) of a 0.5% acetic acid solution. To study administration by oral, subcutaneous and intraperitoneal routes, AGF₄₄ and GM₁ (solubilized in 10 ml/kg of sterile saline physiological solution) and a comparison compound indomethacin were administered by the individual routes one hour before the injection of acetic acid. To study topical administration, one hour before i.p. injection of acetic acid, AGF₄₄ and GM₁ in the form of 0.1% aqueous gels and the comparison 5% Artrosilene gel (ketoprofen lysine salt) were applied to the right paws with a light massage for 30 seconds to ensure complete absorption of the gel. The control groups received saline physiological solution (10 ml/kg) and placebo gel (0.2 ml/rat), respectively. 30 minutes after exudate inducement the animals were sacrificed, samples were taken of the peritoneal exudate and the percentage of inhibition of the same in relation to control values was calculated."}, "[1]": {"conditions": "intraperitoneal, 1 mg/kg, 30 minutes before carrageenan"}, "[2]": {"conditions": "intraperitoneal, 2 mg/kg, 30 minutes before carrageenan"}, "[3]": {"conditions": "intraperitoneal, 5 mg/kg, 30 minutes before carrageenan"}, "[4]": {"conditions": "oral, 1 mg/kg, one hour before 1% carrageenan"}, "[5]": {"conditions": "oral, 2 mg/kg, one hour before carrageenan"}, "[6]": {"conditions": "oral, 5 mg/kg, one hour before carrageenan"}, "[7]": {"conditions": "subcutaneous, 1 mg/kg, 30 minutes before carrageenan"}, "[8]": {"conditions": "subcutaneous, 2 mg/kg, 30 minutes before carrageenan"}, "[9]": {"conditions": "subcutaneous, 5 mg/kg, 30 minutes before carrageenan"}, "[10]": {"conditions": "intraperitoneal, 1 mg/kg, one hour before acetic acid"}, "[11]": {"conditions": "intraperitoneal, 2.5 mg/kg, one hour before acetic acid"}, "[12]": {"conditions": "oral, 1 mg/kg, one hour before i.p. 0.5% acetic acid (10 ml/kg)"}, "[13]": {"conditions": "oral, 2.5 mg/kg, one hour before acetic acid"}, "[14]": {"conditions": "subcutaneous, 1 mg/kg, one hour before acetic acid"}, "[15]": {"conditions": "subcutaneous, 2.5 mg/kg, one hour before acetic acid"}, "[16]": {"conditions": "topical to right paw, 0.1% gel 0.2 ml/rat, 1.4 mg/kg, one hour before acetic acid"}},
  "data": [
    {"molecule": "isopropyl ester of GM₁ ganglioside [GM1 isopropyl ester]", "values": [
      {"measurement": "antiinflammatory activity", "setting": "male Sprague Dawley rats; at doses of over 10 mg/kg", "value": "it diminishes at doses of over 10 mg/kg"},
      {"measurement": "Maximum efficacy (inhibition)", "setting": "male Sprague Dawley rats; by oral route", "value": "50-60%"},
      {"measurement": "% inhibition", "setting": "male Sprague Dawley rats; [1]", "value": 18, "unit": "%"},
      {"measurement": "% inhibition", "setting": "male Sprague Dawley rats; [2]", "value": 32, "unit": "%"},
      {"measurement": "% inhibition", "setting": "male Sprague Dawley rats; [3]", "value": 57, "unit": "%"},
      {"measurement": "% inhibition", "setting": "male Sprague Dawley rats; [4]", "value": 20, "unit": "%"},
      {"measurement": "% inhibition", "setting": "male Sprague Dawley rats; [5]", "value": 32, "unit": "%"},
      {"measurement": "% inhibition", "setting": "male Sprague Dawley rats; [6]", "value": 60, "unit": "%"},
      {"measurement": "% inhibition", "setting": "male Sprague Dawley rats; [7]", "value": 25, "unit": "%"},
      {"measurement": "% inhibition", "setting": "male Sprague Dawley rats; [8]", "value": 30, "unit": "%"},
      {"measurement": "% inhibition", "setting": "male Sprague Dawley rats; [9]", "value": 50, "unit": "%"},
      {"measurement": "% inhibition", "setting": "male Sprague Dawley rats; topical, 0.1% gel 0.2 ml/rat/twice, 1.25 x 2 mg/kg", "value": 32, "unit": "%"},
      {"measurement": "% inhibition", "setting": "male Sprague Dawley rats; topical, 0.1% gel 0.4 ml/rat/twice, 2.5 x 2 mg/kg", "value": 43, "unit": "%"},
      {"measurement": "Peritoneal exudate inhibition", "setting": "Sprague-Dawley rats; after oral administration", "value": "70-80%"},
      {"measurement": "antiexudative efficacy", "setting": "Sprague-Dawley rats; at doses of less than 0.1 mg/kg (in the order of 0.1 mg/kg)", "value": "efficacious"},
      {"measurement": "antiexudative activity", "setting": "Sprague-Dawley rats; at doses of over 10 mg/kg", "value": "the activity decreases"},
      {"measurement": "antiexudative activity compared with indomethacin", "setting": "Sprague-Dawley rats; oral, at 1 mg/kg", "value": "comparable to that of indomethacin"},
      {"measurement": "% inhibition", "setting": "Sprague-Dawley rats; [10]", "value": 55, "unit": "%"},
      {"measurement": "% inhibition", "setting": "Sprague-Dawley rats; [11]", "value": 60, "unit": "%"},
      {"measurement": "% inhibition", "setting": "Sprague-Dawley rats; intraperitoneal, 5 mg/kg, one hour before acetic acid", "value": 64, "unit": "%"},
      {"measurement": "% inhibition", "setting": "Sprague-Dawley rats; [12]", "value": 70, "unit": "%"},
      {"measurement": "% inhibition", "setting": "Sprague-Dawley rats; [13]", "value": 72, "unit": "%"},
      {"measurement": "% inhibition", "setting": "Sprague-Dawley rats; oral, 5 mg/kg, one hour before acetic acid", "value": 77, "unit": "%"},
      {"measurement": "% inhibition", "setting": "Sprague-Dawley rats; [14]", "value": 47, "unit": "%"},
      {"measurement": "% inhibition", "setting": "Sprague-Dawley rats; [15]", "value": 61, "unit": "%"},
      {"measurement": "% inhibition", "setting": "Sprague-Dawley rats; subcutaneous, 5 mg/kg, one hour before acetic acid", "value": 70, "unit": "%"},
      {"measurement": "% inhibition", "setting": "Sprague-Dawley rats; [16]", "value": 43, "unit": "%"}
    ]},
    {"molecule": "GM₁ ganglioside [GM1, reference compound]", "values": [
      {"measurement": "% inhibition", "setting": "male Sprague Dawley rats; [2]", "value": 20, "unit": "%"},
      {"measurement": "% inhibition", "setting": "male Sprague Dawley rats; [3]", "value": 30, "unit": "%"},
      {"measurement": "% inhibition", "setting": "male Sprague Dawley rats; [5]", "value": 20, "unit": "%"},
      {"measurement": "% inhibition", "setting": "male Sprague Dawley rats; [6]", "value": 32, "unit": "%"},
      {"measurement": "% inhibition", "setting": "male Sprague Dawley rats; [8]", "value": 19, "unit": "%"},
      {"measurement": "% inhibition", "setting": "male Sprague Dawley rats; [9]", "value": 31, "unit": "%"},
      {"measurement": "% inhibition", "setting": "male Sprague Dawley rats; topical, 0.1% gel 0.2 ml/rat/twice, dose in mg/kg not given", "value": 20, "unit": "%"},
      {"measurement": "% inhibition", "setting": "Sprague-Dawley rats; [10]", "value": 47, "unit": "%"},
      {"measurement": "% inhibition", "setting": "Sprague-Dawley rats; [11]", "value": 51, "unit": "%"},
      {"measurement": "% inhibition", "setting": "Sprague-Dawley rats; [12]", "value": 56, "unit": "%"},
      {"measurement": "% inhibition", "setting": "Sprague-Dawley rats; [13]", "value": 63, "unit": "%"},
      {"measurement": "% inhibition", "setting": "Sprague-Dawley rats; [14]", "value": 44, "unit": "%"},
      {"measurement": "% inhibition", "setting": "Sprague-Dawley rats; [15]", "value": 52, "unit": "%"},
      {"measurement": "% inhibition", "setting": "Sprague-Dawley rats; [16]", "value": 30, "unit": "%"}
    ]},
    {"molecule": "COc1ccc2c(c1)c(CC(=O)O)c(C)n2C(=O)c1ccc(Cl)cc1", "note": "[Indomethacin, indomethacin, reference compound]", "values": [
      {"measurement": "% inhibition", "setting": "male Sprague Dawley rats; [1]", "value": 23, "unit": "%"},
      {"measurement": "% inhibition", "setting": "male Sprague Dawley rats; [3]", "value": 67, "unit": "%"},
      {"measurement": "% inhibition", "setting": "male Sprague Dawley rats; [4]", "value": 22, "unit": "%"},
      {"measurement": "% inhibition", "setting": "male Sprague Dawley rats; [6]", "value": 67, "unit": "%"},
      {"measurement": "% inhibition", "setting": "male Sprague Dawley rats; [7]", "value": 30, "unit": "%"},
      {"measurement": "% inhibition", "setting": "male Sprague Dawley rats; [9]", "value": 60, "unit": "%"},
      {"measurement": "% inhibition", "setting": "Sprague-Dawley rats; [10]", "value": 70, "unit": "%"},
      {"measurement": "% inhibition", "setting": "Sprague-Dawley rats; [12]", "value": 74, "unit": "%"},
      {"measurement": "% inhibition", "setting": "Sprague-Dawley rats; [13]", "value": 90, "unit": "%"},
      {"measurement": "% inhibition", "setting": "Sprague-Dawley rats; [14]", "value": 64, "unit": "%"},
      {"measurement": "% inhibition", "setting": "Sprague-Dawley rats; [15]", "value": 84, "unit": "%"}
    ]}
  ]
}
